Measured values as given in publication PMC10515640, “Structure-Based Optimization of Covalent, Small-Molecule Stabilizers of the 14-3-3σ/ERα Protein–Protein Interaction from Nonselective Fragments” (Journal of the American Chemical Society, 2023).

How the values were obtained:
14-3-3σ/C-RAF [1] = biological target: T1, 14-3-3σ/C-RAF (Homo sapiens, UniProt P31947); assay: Mass spectrometry dose response, compound binding to 14-3-3σ in the presence of C-RAF phosphopeptide; settings: 100 nM compound, 100 nM 14-3-3σ, C-RAF peptide 18 µM
T1 construct: The 14-3-3 σ isoform (full-length for mass spectrometry and fluorescence anisotropy assays, ΔC for crystallography); made in house; host or cells: E. coli Rosetta 2(DE3)pLysS, pPROEX HTb vector
T1 sequence (P31947 1-248): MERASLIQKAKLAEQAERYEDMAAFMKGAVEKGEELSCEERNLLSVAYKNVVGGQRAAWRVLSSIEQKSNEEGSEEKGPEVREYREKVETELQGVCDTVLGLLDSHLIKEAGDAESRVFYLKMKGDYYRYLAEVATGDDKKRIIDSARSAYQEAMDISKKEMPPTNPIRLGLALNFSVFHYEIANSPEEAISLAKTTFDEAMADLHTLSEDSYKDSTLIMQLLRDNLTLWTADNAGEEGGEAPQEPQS
From the text: (§1) Two orthogonal assays were developed for screening. For the primary assay, mass spectrometry (MS) was used to monitor the formation of the covalent bond between the compound and the native cysteine (Cys38 on 14-3-3σ) (Figure 1D). The assay was first performed in the absence of peptide to determine binding to 14-3-3σ only (apo screening, D1) and then in the presence of both 14-3-3σ and the peptide as an indication of how much the peptide stabilized compound binding (D2). […] As a secondary assay, fluorescence anisotropy (FA) was used. In this case, compounds were titrated to mixtures of 14-3-3σ and FAM-labeled peptides. […] Thus, the two assays are highly complementary; the MS assay reports on compound binding and the FA assay reports on peptide binding. […]
(§2) Mass spectrometry dose response assays were performed on a Waters Acquity UPLC/ Xevo G2-XS Q-Tof mass spectrometer. A Waters UPLC Protein BEH-C4 Column (300 Å, 1.7 μm, 2.1 mm x 50 mm) was used to desalt the samples prior to application on the mass spectrometer. For 19-point MS dose responses, 50 mM compound stocks in DMSO were serially diluted in 3-fold increment in a master plate, then 1000 nl of the compounds were transferred in the assay plates. Master mixes containing 100 nM full-length wild type 14-3-3σ in the absence or presence of […]
(§3) Assay buffer was TRIS (10 mM, pH 8.0) and final volume per well was 50 μl, with final top concentration of compounds dose response series at 1 mM. The reaction mixtures were incubated for 1h at rt before subjected to MS. Four measurements (1h, 8h, 16h, 24h) were performed for time-course experiments. The injection volume for each sample was 6 μl. 24 μl of sample were needed for the time-course experiments, so the total volume in the assay plate was adjusted to 50 μl, to account for the dead volume in the injections. Data collection and automated processing followed a custom workflow, as previously described.1 z Plots were created using GraphPad Prism with the log(agonist) vs. response (variable slope, four parameters) fitting model. […]

14-3-3σ/C-RAF [2] = biological target: T1, 14-3-3σ/C-RAF; assay: Fluorescence anisotropy compound titration, FAM-labeled C-RAF peptide; type: binding; settings: 10 nM C-RAF-FAM labeled peptide, 5 µM 14-3-3σ, overnight incubation; read-out: EC50 value C-RAF (FA compound titration)
From the text: as §1
(§4) diluted in buffer (10 mM HEPES, pH 7.5, 150 mM NaCl, 0.1% Tween20, 1 mg/mL Bovine Serum Albumin (BSA; Sigma-Aldrich). Final DMSO in the assay was always 1%. Dilution series of 14-3-3 proteins or compounds were made in […]
(§5) Compound titrations were made by titrating the compound in a 2-fold dilution series (starting at 500 or 1000 µM) to a mix of fluorescein-labeled peptide (10 nM) and 14-3-3σ (concentration at approximately the EC20 to EC30 value of the protein-peptide complex; 1 µM for ERα and 5 µM for C-RAF). Using the ~EC25 value makes the assay sensitive for measuring an increase in PPI formation. Fluorescence anisotropy measurements were performed directly and after overnight incubation at room temperature. […]
(§6) Wells containing only FAM-peptide were used to set as G-factor at 35 mP. Data reported are at endpoint. EC50 and apparent Kd values were obtained from fitting the data with a four-parameter logistic model (4PL) in GraphPad Prism 7 for Windows. Data was obtained and averaged based on either three (compound titrations) or two (protein titrations) independent experiments.

14-3-3σ = biological target: T2, 14-3-3σ (Homo sapiens, UniProt P31947); assay: Mass spectrometry dose response, compound binding to 14-3-3σ in the absence of peptide (apo); settings: 100 nM compound, 100 nM 14-3-3σ
T2 construct: The 14-3-3 σ isoform (full-length for mass spectrometry and fluorescence anisotropy assays, ΔC for crystallography); made in house; host or cells: E. coli Rosetta 2(DE3)pLysS, pPROEX HTb vector
T2 sequence (P31947 1-248): T1 sequence (P31947 1-248)
From the text: as §1, §2, §3

14-3-3σ/ERα [3] = biological target: T3, 14-3-3σ/ERα (Homo sapiens, UniProt P03372+P31947); assay: Fluorescence anisotropy compound titration, FAM-labeled ERα peptide; type: binding; settings: 10 nM ERα-FAM labeled peptide, 1 µM 14-3-3σ, overnight incubation (24 h); read-out: EC50 value ERα (FA compound titration)
T3 construct: The 14-3-3 σ isoform (full-length for mass spectrometry and fluorescence anisotropy assays, ΔC for crystallography); made in house; host or cells: E. coli Rosetta 2(DE3)pLysS, pPROEX HTb vector
From the text: as §1, §4, §5, §6

14-3-3σ/ERα [4] = biological target: T3, 14-3-3σ/ERα; assay: Mass spectrometry dose response, compound binding to 14-3-3σ in the presence of ERα phosphopeptide; settings: 100 nM compound, 100 nM 14-3-3σ, ERα-peptide 2 µM
From the text: as §1, §2, §3

| SMILES | Percentage (%) bound of compound to 14-3-3σ, CRAF 1h (14-3-3σ/C-RAF [1]) [%] | Percentage (%) bound of compound to 14-3-3σ, CRAF 8h (14-3-3σ/C-RAF [1]) [%] | Percentage (%) bound of compound to 14-3-3σ, CRAF 24h (14-3-3σ/C-RAF [1]; 24h) [%] | Percentage (%) bound of compound to 14-3-3σ, CRAF 24h (14-3-3σ/C-RAF [1]; head prints 24h) [%] | EC50 (14-3-3σ/C-RAF [2]) [µM] | Percentage (%) bound of compound to 14-3-3σ, APO 1h (14-3-3σ) [%] | Percentage (%) bound of compound to 14-3-3σ, APO 8h (14-3-3σ) [%] | Percentage (%) bound of compound to 14-3-3σ, APO 16h (14-3-3σ) [%] | Percentage (%) bound of compound to 14-3-3σ, APO 24h (14-3-3σ) [%] | EC50 (14-3-3σ/ERα [3]) [µM] | Percentage (%) bound of compound to 14-3-3σ, ERα 1h (14-3-3σ/ERα [4]) [%] | Percentage (%) bound of compound to 14-3-3σ, ERα 8h (14-3-3σ/ERα [4]) [%] | Percentage (%) bound of compound to 14-3-3σ, ERα 16h (14-3-3σ/ERα [4]) [%] | Percentage (%) bound of compound to 14-3-3σ, ERα 24h (14-3-3σ/ERα [4]) [%] |
| --- | --- | --- | --- | --- | --- | --- | --- | --- | --- | --- | --- | --- | --- | --- |
| CC(C)(Oc1ccc(Cl)cc1)C(=O)N1CCC(NC(=O)CCl)CC1 [compound 26] | 0.0 | 1.0 | 4.3 | 2.6 | > 150 | 0 | 0 | 0 | 0 | > 150 | 0 | 0 | 0 | 1.8 |
| CC1(C)CC(Nc2ccc(Cl)cc2)(C(=O)N2CCC(CNC(=O)CCl)CC2)CC(C)(C)O1 [compound 179] | 0 | 0 | 1.0 | 0 | > 150 | 0 | 0 | 0.3 | 0.4 | 23 ± 2 | 1.5 | 3.0 | 6.4 | 11.8 |
| O=C(CCl)N1CCC2(CC1)CN(C(=O)C1(Nc3ccc(Cl)cc3)CCOCC1)C2 [compound 161] | 0 | 0.6 | 2.1 | 1.0 | > 150 | 0 | 0 | 0.5 | 1.0 | 22 ± 1 | 4.7 | 7.8 | 14.9 | 39.8 |
| Cl.O=C(CCl)NCC1CCN(C(=O)C2(Oc3ccc(Cl)cc3)CCNCC2)CC1 [compound 129] | 0.4 | 0.6 | 2.6 | 1.9 | > 150 | 0.9 | 2.0 | 2.4 | 4.8 | 30 ± 1 | 16.5 | 31.4 | 58.4 | 82.6 |
| O=C(CCl)NCC1CCN(C(=O)C2(Oc3ccc(Cl)cc3)CCOCC2)CC1 [compound 126] | 0.0 | 1.0 | 4.7 | 3.6 | > 150 | 0 | 0 | 0 | 1.0 | 9 ± 2 | 1.7 | 6.2 | 9.1 | 15.1 |
| O=C(CCl)NCC1CCN(C(=O)C2(Nc3ccc(Cl)cc3)CC2)CC1 [compound 97] | 1.0 | 1.7 | 5.5 | 5.1 | 101 ± 15 | 0.3 | 0.4 | 0.8 | 5.9 | 15 ± 1 | 1.0 | 2.5 | 5.8 | 21.3 |
| O=C(CCl)NCC1CCN(C(=O)C2(Oc3ccc(Cl)cc3)CCC(F)(F)CC2)CC1 [compound 124] | 2.0 | 2.9 | 15.3 | 9.1 | > 150 | 0 | 1.0 | 1.4 | 1.6 | 18 ± 0.4 | 7.4 | 15.3 | 33.4 | 66.9 |
| O=C(CCl)NCC1CCN(C(=O)C2(Oc3ccccc3)CCCC2)CC1 [compound 119] | 6.2 | 19.7 | 53.6 | 28.5 | 18 ± 0.3 | 0 | 1.0 | 1.0 | 2.5 | 24 ± 2 | 1.9 | 5.3 | 10.9 | 21.0 |
